Test results published in publication PMC9527238, “Glutamate and GABAA receptor crosstalk mediates homeostatic regulation of neuronal excitation in the mammalian brain” (Signal Transduction and Targeted Therapy, 2022).

Assays:
Type in all cases: cell-based
rat α1β2 GABAARs = molecular target: T1, rat α1β2 GABAARs (Rattus norvegicus, UniProt P62813+P63138); test: Whole-cell patch clamp of GABA-evoked currents, HEK293 cells expressing α1β2
T1 construct: expressed in transfected cells; host or cells: HEK293
T1 sequence (P62813 28-455): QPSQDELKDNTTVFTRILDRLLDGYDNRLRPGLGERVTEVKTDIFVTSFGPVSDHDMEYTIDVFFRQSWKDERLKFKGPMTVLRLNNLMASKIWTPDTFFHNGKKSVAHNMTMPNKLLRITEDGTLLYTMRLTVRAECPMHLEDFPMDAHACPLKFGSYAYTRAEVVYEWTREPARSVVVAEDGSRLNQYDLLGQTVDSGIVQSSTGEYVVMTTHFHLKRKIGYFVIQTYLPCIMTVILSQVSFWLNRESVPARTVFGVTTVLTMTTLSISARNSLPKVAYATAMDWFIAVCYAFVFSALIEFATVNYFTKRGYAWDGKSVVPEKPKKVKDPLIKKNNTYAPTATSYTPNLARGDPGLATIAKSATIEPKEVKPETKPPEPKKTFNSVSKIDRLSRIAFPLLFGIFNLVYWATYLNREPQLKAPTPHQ
T1 sequence (P63138 26-474): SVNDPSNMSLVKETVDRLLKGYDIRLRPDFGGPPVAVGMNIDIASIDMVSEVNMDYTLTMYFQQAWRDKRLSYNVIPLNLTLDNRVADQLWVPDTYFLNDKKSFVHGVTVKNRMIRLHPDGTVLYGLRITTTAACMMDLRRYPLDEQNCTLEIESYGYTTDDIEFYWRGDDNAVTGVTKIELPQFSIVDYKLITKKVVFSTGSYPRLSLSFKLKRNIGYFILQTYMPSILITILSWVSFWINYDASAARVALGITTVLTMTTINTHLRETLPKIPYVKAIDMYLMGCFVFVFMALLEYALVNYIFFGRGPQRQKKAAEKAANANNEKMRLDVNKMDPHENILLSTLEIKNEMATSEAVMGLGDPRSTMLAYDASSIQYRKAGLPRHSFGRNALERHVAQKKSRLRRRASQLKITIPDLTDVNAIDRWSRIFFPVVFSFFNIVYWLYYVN
Excerpt: Co-expression of the α and β subunits is the minimum requirement for a functional recombinant GABAAR expressed in a heterologous cell line such as HEK293, while co-expression of the α, β and γ subunits is required for the recombinant receptor with a full pharmacological profile.[2] We therefore transiently expressed either rat α1β2 or α1β2γ2 subunits in HEK293 cells.
HEK293 cells were transiently transfected with rat GABAAR α1/β2 (a–e) or α1/β2/γ2 (f) subunits. Whole-cell voltage-clamp recordings were performed with a chloride-based intracellular recording solution at a holding membrane potential of −60 mV.
(§1) HEK293 cells were cultured in DMEM (Invitrogen) supplemented with 10% fetal bovine serum. Cells were grown to 40–60% confluence and transiently transfected using Lipofectamine 2000 (Invitrogen) with 1:0.5–1 plasmid/lipid ratio. Cells were transfected with a pBK-CMV expression vector containing a rat recombinant GABAAR α, β or γ subunits. Co-transections were done with a plasmid ratio of 1:1 αβ and 2:2:1 for αβγ subunit combinations, respectively. pcDNA3.1-GFP was also co-transfected along with GABAAR subunits as a transfected marker in order to facilitate the visualization of the transfected cells during electrophysiological experiments. Cells were re-plated on glass coverslips after 15–20 h transfection and were cultured for an additional 15–24 h before whole-cell patch-clamp recordings.
(§2) Whole-cell patch-clamp recordings were performed under voltage-clamp mode using an Axopatch 200B or 1D patch-clamp amplifier (Molecular Devices) on HEK293 cells and cultured neurons. Whole-cell currents were recorded at a holding potential of −60 mV, and signals were filtered at 2 kHz, digitized at 10 kHz (Digidata 1322 A). Recording pipettes (3–5 MΩ) were filled with the intracellular solution that contained (mM): CsCl 140, HEPES 10, Mg-ATP 4, QX-314 5, pH 7.20; osmolarity, 290–295 mOsm. BAPTA (10 mM) was added in the intracellular solution. The coverslips were continuously superfused with the extracellular solution containing (mM): NaCl 140, KCl 5.4, HEPES 10, MgCl2 1.0, CaCl2 1.3, glucose 20, pH 7.4; osmolarity, 305–315 mOsm. […] Dose–response curves were created by fitting data to Hill equation: I = Imax/[1 + (EC50/[A])^n], where I is the current, Imax is the maximum current, [A] is a given concentration of agonist, n is the Hill coefficient. […] All experiments were performed at room temperature.

α1^E137G β2 γ2 GABAAR = molecular target: T2, α1^E137G β2 γ2 GABAAR (Rattus norvegicus, UniProt P62813+P63138, E164G); test: Patch clamp, HEK293, mutant GABAAR; conditions: Glu 1 mM; GABA 1 µM; normalized to wild-type α1β2γ2
T2 construct: expressed in transfected cells; host or cells: HEK293
T2 sequence (P62813 28-455 E164G): as the sequence (P62813 28-455) above, with E137G counted along it
T2 sequence (P63138 26-474): as the sequence (P63138 26-474) above
T2 sequence (P18508 39-466 partner): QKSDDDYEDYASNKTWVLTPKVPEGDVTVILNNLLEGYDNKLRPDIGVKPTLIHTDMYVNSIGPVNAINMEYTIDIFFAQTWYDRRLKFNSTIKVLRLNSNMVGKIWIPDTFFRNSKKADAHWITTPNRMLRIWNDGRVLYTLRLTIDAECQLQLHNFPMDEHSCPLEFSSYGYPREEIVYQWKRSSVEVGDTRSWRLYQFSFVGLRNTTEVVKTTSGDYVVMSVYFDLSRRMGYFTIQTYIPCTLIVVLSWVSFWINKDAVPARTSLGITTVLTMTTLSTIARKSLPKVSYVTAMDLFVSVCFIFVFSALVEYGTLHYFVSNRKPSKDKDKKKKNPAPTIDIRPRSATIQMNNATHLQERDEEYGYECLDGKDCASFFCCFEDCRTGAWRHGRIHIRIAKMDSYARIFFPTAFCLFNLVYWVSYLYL
Excerpt: (§3) The subunits are color-coded individually. The boxed regions are further enlarged in the middle panels, highlighting the predicted glutamate binding pocket in the α+ and β− interface, just below the loop C. […] Relative potentiation was obtained by normalizing potentiation observed in the mutated receptor to that in the respective wild-type receptor.
(§4) To positively confirm one of these two putative binding sites involved in glutamate binding, we performed a systemic mutational analysis of critical amino acids around these two sites followed by electrophysiological characterizations of their impacts on glutamate potentiation in HEK293 cells expressing wild-type or mutated α1β2γ2 GABAARs (Table 1).
as §1
(§5) The site-directed mutagenesis of α, β or γ subunits were performed by using the QuikChange method (Stratagene). […] Wild-type or mutant subunits were transfected in HEK293 cells and subjected to electrophysiology examinations.
as §2

α1 β2^E181G γ2 GABAAR = molecular target: T3, α1 β2^E181G γ2 GABAAR (Rattus norvegicus, UniProt P62813+P63138, E206G); test: Patch clamp, HEK293, mutant GABAAR; conditions: normalized to wild-type α1β2γ2; for Relative potentiation: glutamate 100 μM co-applied with GABA 1 μM
T3 construct: expressed in transfected cells; host or cells: HEK293
T3 sequence (P62813 28-455): as the sequence (P62813 28-455) above
T3 sequence (P63138 26-474 E206G): as the sequence (P63138 26-474) above, with E181G counted along it
T3 sequence (P18508 39-466 partner): as the sequence (P18508 39-466 partner) above
Excerpt: as §3, §4, §1, §5, §2

α1^K104D β2 γ2 GABAAR = molecular target: T4, α1^K104D β2 γ2 GABAAR (Rattus norvegicus, UniProt P62813+P63138, K131D); test: Patch clamp, HEK293, mutant GABAAR; conditions: Glu 1 mM; GABA 1 µM; normalized to wild-type α1β2γ2
T4 construct: expressed in transfected cells; host or cells: HEK293
T4 sequence (P62813 28-455 K131D): as the sequence (P62813 28-455) above, with K104D counted along it
T4 sequence (P63138 26-474): as the sequence (P63138 26-474) above
T4 sequence (P18508 39-466 partner): as the sequence (P18508 39-466 partner) above
Excerpt: as §3, §4, §1, §5, §2

α1^K155D β2 γ2 GABAAR = molecular target: T5, α1^K155D β2 γ2 GABAAR (Rattus norvegicus, UniProt P62813+P63138, K182D); test: Patch clamp, HEK293, mutant GABAAR; conditions: Glu 1 mM; GABA 1 µM; normalized to wild-type α1β2γ2
T5 construct: expressed in transfected cells; host or cells: HEK293
T5 sequence (P62813 28-455 K182D): as the sequence (P62813 28-455) above, with K155D counted along it
T5 sequence (P63138 26-474): as the sequence (P63138 26-474) above
T5 sequence (P18508 39-466 partner): as the sequence (P18508 39-466 partner) above
Excerpt: as §3, §4, §1, §5, §2

αE137Gβ GABAAR = molecular target: T6, αE137Gβ GABAAR (Rattus norvegicus, UniProt P62813+P63138, E164G); test: Patch clamp, HEK293, mutant α1β2 GABAAR; conditions: HEK293, read-out: Glutamate potentiation of GABA currents, % of control, normalized to wild-type α1β2
T6 construct: expressed in transfected cells; host or cells: HEK293
T6 sequence (P62813 28-455 E164G): as the sequence (P62813 28-455) above, with E137G counted along it
T6 sequence (P63138 26-474): as the sequence (P63138 26-474) above
Protocol: as §3, §1, §5, §2

αK155Dβ GABAAR = molecular target: T7, αK155Dβ GABAAR (Rattus norvegicus, UniProt P62813+P63138, K182D); test: Patch clamp, HEK293, mutant α1β2 GABAAR; conditions: HEK293, read-out: Glutamate potentiation of GABA currents, % of control, normalized to wild-type α1β2
T7 construct: expressed in transfected cells; host or cells: HEK293
T7 sequence (P62813 28-455 K182D): as the sequence (P62813 28-455) above, with K155D counted along it
T7 sequence (P63138 26-474): as the sequence (P63138 26-474) above
Protocol: as §3, §1, §5, §2

αK104Dβ GABAAR = molecular target: T8, αK104Dβ GABAAR (Rattus norvegicus, UniProt P62813+P63138, K131D); test: Patch clamp, HEK293, mutant α1β2 GABAAR; conditions: HEK293, read-out: Glutamate potentiation of GABA currents, % of control, normalized to wild-type α1β2
T8 construct: expressed in transfected cells; host or cells: HEK293
T8 sequence (P62813 28-455 K131D): as the sequence (P62813 28-455) above, with K104D counted along it
T8 sequence (P63138 26-474): as the sequence (P63138 26-474) above
Protocol: as §3, §1, §5, §2

αβE181G GABAAR = molecular target: T9, αβE181G GABAAR (Rattus norvegicus, UniProt P62813+P63138, E206G); test: Patch clamp, HEK293, mutant α1β2 GABAAR; conditions: HEK293, read-out: Glutamate potentiation of GABA currents, % of control, normalized to wild-type α1β2
T9 construct: expressed in transfected cells; host or cells: HEK293
T9 sequence (P62813 28-455): as the sequence (P62813 28-455) above
T9 sequence (P63138 26-474 E206G): as the sequence (P63138 26-474) above, with E181G counted along it
Protocol: as §3, §1, §5, §2

αK155Wβγ GABAAR = molecular target: T10, αK155Wβγ GABAAR (Rattus norvegicus, UniProt P62813+P63138, K182W); test: Patch clamp, HEK293, mutant GABAAR; conditions: HEK293, read-out: Glutamate potentiation of GABA currents, % of control, normalized to wild-type α1β2γ2
T10 construct: expressed in transfected cells; host or cells: HEK293
T10 sequence (P62813 28-455 K182W): as the sequence (P62813 28-455) above, with K155W counted along it
T10 sequence (P63138 26-474): as the sequence (P63138 26-474) above
T10 sequence (P18508 39-466 partner): as the sequence (P18508 39-466 partner) above
Excerpt: (§6) To further determine the relative significance between the electrostatic and the side chain steric arrangements of these critical amino acid residues in their interaction with glutamate, we next studied the effects of substitution of these amino acids with amino acids of various sizes or charges on the glutamate potentiation. We substituted α1K104, α1E137, α1K155, or β2E181 with […], a non-charged amino acid, in order to perturb the electrostatic accessibility of glutamate to the binding pocket.
(§7) Fig. 4 Property characterization of glutamate binding sites in HEK cells expressing wild-type or mutated αβγ GABAARs. a, b The effects of electrostatic charge and/or size of the pocket-forming residues on glutamate-induced functional modulation.
as §1, §5, §2

αK104Wβγ GABAAR = molecular target: T11, αK104Wβγ GABAAR (Rattus norvegicus, UniProt P62813+P63138, K131W); test: Patch clamp, HEK293, mutant GABAAR; conditions: HEK293, read-out: Glutamate potentiation of GABA currents, % of control, normalized to wild-type α1β2γ2
T11 construct: expressed in transfected cells; host or cells: HEK293
T11 sequence (P62813 28-455 K131W): as the sequence (P62813 28-455) above, with K104W counted along it
T11 sequence (P63138 26-474): as the sequence (P63138 26-474) above
T11 sequence (P18508 39-466 partner): as the sequence (P18508 39-466 partner) above
Excerpt: as §6, §7, §1, §5, §2

αE137Wβγ GABAAR = molecular target: T12, αE137Wβγ GABAAR (Rattus norvegicus, UniProt P62813+P63138, E164W); test: Patch clamp, HEK293, mutant GABAAR; conditions: HEK293, read-out: Glutamate potentiation of GABA currents, % of control, normalized to wild-type α1β2γ2
T12 construct: expressed in transfected cells; host or cells: HEK293
T12 sequence (P62813 28-455 E164W): as the sequence (P62813 28-455) above, with E137W counted along it
T12 sequence (P63138 26-474): as the sequence (P63138 26-474) above
T12 sequence (P18508 39-466 partner): as the sequence (P18508 39-466 partner) above
Excerpt: as §6, §7, §1, §5, §2

In the case of `N[C@@H](CCC(=O)O)C(=O)O` [glutamate, Glutamate], the “amplitude of GABA-induced currents with glutamate co-applied” value (rat α1β2 GABAARs) is reported as 331.2 ± 44.5%, the “current produced by glutamate on its own” value (rat α1β2 GABAARs) is reported as “no noticeable current” and the “lowest effective dose (20% potentiation)” value (rat α1β2 GABAARs) is reported as “around 30 μM”. The “potentiation effect at saturated GABA concentration” value (rat α1β2 GABAARs) was “almost no potentiation effect”, the EC50 (rat α1β2 GABAARs; potentiation of 1 μM GABA-induced currents, read-out: EC50 of glutamate potentiation) was about 180 µM and the “Relative potentiation, % of control” value (α1^E137G β2 γ2 GABAAR) was 26.9 ± 6.4%. For the same molecule, the “Relative potentiation, % of control” value (α1 β2^E181G γ2 GABAAR; Glu 1 mM, GABA 1 µM) was 1.8 ± 9.6%, the Relative potentiation (α1 β2^E181G γ2 GABAAR) was 1.6 ± 11.6% and the Relative potentiation (α1 β2^E181G γ2 GABAAR; listed as Glu) was 1.6 ± 11.6%. For the same molecule, the “Relative potentiation, % of control” value (α1^K104D β2 γ2 GABAAR) was 18.6 ± 6.3%, the “Relative potentiation, % of control” value (α1^K155D β2 γ2 GABAAR) was 19.8 ± 11.7% and the activity at 100 µM (αE137Gβ GABAAR; Glu 100 μM) was 109 ± 30.2%. It also gave an activity at 1000 µM (αE137Gβ GABAAR; Glu 1 mM) of 88.4 ± 5.9%, an activity at 100 µM (αK155Dβ GABAAR; Glu 100 μM) of 76.3 ± 10.5% and an activity at 1000 µM (αK155Dβ GABAAR; Glu 1 mM) of 90.1 ± 11.3%. The activity at 100 µM (αK104Dβ GABAAR; Glu 100 μM) was 48.8 ± 9.5%, the activity at 1000 µM (αK104Dβ GABAAR; Glu 1 mM) was 94.7 ± 20.7% and the activity at 100 µM (αβE181G GABAAR; Glu 100 μM) was 51.2 ± 9.5%. For the same molecule, the activity at 1000 µM (αβE181G GABAAR; Glu 1 mM) was 50.6 ± 8.4%, the activity at 100 µM (αK155Wβγ GABAAR; Glu 100 μM) was 4 ± 4.7% and the activity at 1000 µM (αK155Wβγ GABAAR; Glu 1 mM) was 29.9 ± 8.8%. The activity at 100 µM (αK104Wβγ GABAAR; Glu 100 μM) was 17.8 ± 15.3%, the activity at 1000 µM (αK104Wβγ GABAAR; Glu 1 mM) was 50.8 ± 17.2% and the activity at 100 µM (αE137Wβγ GABAAR; Glu 100 μM) was 14.7 ± 6.3%. For the same molecule, the activity at 1000 µM (αE137Wβγ GABAAR; Glu 1 mM) was 21.1 ± 4.4%.
